According to US5840936A, “Aminosterol compounds useful as inhibitors of the sodium/proton exchanger (NHE)” (priority 1995, dated 1998):
Entries after “also recorded” stand apart in the source; their conditions may differ.

What was measured:
[1] = tested on: Human microvascular endothelial cells; experiment: Growth inhibition in vitro, human microvascular endothelial cells; format: cell-based; settings: 10 μg/ml
Description: (§1) As set forth in Table 7 below, all malignant tumors evaluated in tissue culture, endothelial cells and vascular smooth muscle cells were sensitive to inhibition. Thus, compound 1436 has application in the control of growth factor dependent proliferation of many types of tissue.

[2] = tested on: human coronary artery smooth muscle; experiment: Growth of human coronary artery smooth muscle in vitro; format: cell-based
Description: Aminosterols of the invention may also have utility in inhibiting the growth factor mediated proliferation of smooth muscle within the artery. Following coronary angioplasty, reocclusion commonly occurs, secondary to reparative proliferation of the vascular smooth muscle within the wall of the surgically manipulated blood vessel. This process generally takes place over the course of 7-10 days. To evaluate whether an agent could prevent the growth factor mediated proliferation of smooth muscle within the artery, compound 1436 was evaluated in vitro for its effect on the proliferation of human coronary artery smooth muscle. Results for compound 1436 are shown in FIG. 13, and those for squalamine are shown in FIG. 14, with FIG. 15 being a composite logarithmic plot.

[3] = Fasting blood glucose in mice; format: in vivo, male CD-1 mice
Method: To study the effect of steroid administrator or the NHE responsible for secretion of insulin, several of the aminosterols from shark liver were administered to fasting mice. Male CD-1 mice were assigned to one of four treatment groups. Whole blood glucose was tested using glucometer (Lifescan Glucometer II and One Touch test strips). Statistical analysis was via one-way analysis of variance (ANOVA) followed by subsequent Bonferonni's t-test.

Murine L1210 leukemia = experiment: Growth inhibition in vitro, L1210; format: cell-based; settings: 10 μg/ml
Description: as §1

ELC = ELC MTT; format: cell-based; settings: Table II; read-out: ELC MTT, Minimum Effective Concentration
[4] = tested on: human umbilical venous endothelial cells; experiment: Growth inhibition in vitro, human umbilical venous endothelial cells; format: cell-based; settings: 10 μg/ml
Description: as §1

[5] = tested on: PHA-stimulated lymphocytes; experiment: Lymphocyte viability in HIV assay; format: cell-based; settings: 10080 min
Description: Results are tabulated below.

Lewis lung carcinoma = experiment: Growth inhibition in vitro, Lewis lung carcinoma; format: cell-based; settings: 10 μg/ml
Description: as §1

B16 melanoma = experiment: Suppression of B16 melanoma growth in C57B mice; format: in vivo, mouse
Method: The growth of B16 melanoma in C57B mice is dependent upon neovascularization.
Using the growth of B16 melanoma cells in C57B mice, a recognized model for the evaluation of inhibitors of angiogenesis on the growth of cancers, the effects of subcutaneous, intraperitoneal and oral administration of squalamine were evaluated.
Animals were implanted with B16 melanoma followed by treatment with compound 1436 or 1256 administered in a combined schedule or separately. […] Thus, a combination of these two compounds achieves a theraputic benefit in tumors dependent on neovascularization that may prevent metastatic spread.

[6] = tested on: chick embryo vitelline capillaries; experiment: Chick embryo vitelline capillary regression assay; format: in vivo; design: key to Vitelline capillary regression: +: Vascular reactivity; 0: No vascular reactivity; +/-: Equivocal reactivity
Outline: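 Compounds were applied to 3-day chick embryos in 0.1 ml of 15% Ficol 400 and PBS. Regression of vitelline capillaries was scored visually 60 minutes later.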

[7] = tested on: bovine pulmonary endothelial cells; experiment: Growth inhibition in vitro, bovine pulmonary endothelial cells; format: cell-based; settings: 10 μg/ml
Description: as §1

[8] = tested on: Xenopus tadpoles, stage 59-60; settings: 10 μg/mL
[9] = Effect on growth and weight gain in mice; format: in vivo, C57B mice; settings: 10 mg/kg QTD i.p., after 6 doses, about 1 month
Method: Animals were dosed QTD (i.p.) starting on Day 1. […] Animals receiving 5 mg/kg QTD experienced about a 50% reduction in growth, compared to untreated controls, while animals receiving 1 mg/kg QTD were affected by about 10%. […] They appeared very much like hypophysectamized animals might appear.

[10] = tested on: Human ovarian carcinoma SKOV3; experiment: Growth inhibition in vitro, SKOV3; format: cell-based; settings: 10 μg/ml
Description: as §1

[11] = tested on: Xenopus tadpoles, stage 59-60; experiment: Xenopus tadpole assay; settings: 10 μg/ml
Human melanoma WM 1617 = experiment: Growth inhibition in vitro, WM 1617; format: cell-based; settings: 10 μg/ml
Description: as §1

Xenopus laevis heart = experiment: Isolated frog heart, persistence of beating ex vivo; settings: 10 μg/ml, room temperature, adrenaline 50 μg/ml; control about one hour
Method: To determine if compound 1436 has such utility, the following experiment was performed. The heart of a juvenile Xenopus laevis frog was dissected from the living animal. The heart was placed into a Petri dish containing Krebs-Ringer buffer with adrenaline 50 μg/ml, and examined with the naked eye. At room temperature, the heart continued beating in a coordinated fashion (atrial beat followed by ventricular beat) for about one hour. In the presence of 10 μg/ml of compound 1436, spontaneous beating persisted up to 24 hours.

rabbit NHE3 = rabbit NHE3 (Oryctolagus cuniculus, UniProt P26432); experiment: NHE3 inhibition, internal pH (BCECF-AM) in transfected PS120 fibroblasts; settings: 10 μg/ml, acid preloaded
Method: Internal pH was measured either following acid loading or in the absence of an acid-loading challenge, with the results shown in FIGS. 1A and 1B.
Specifically, PS120 fibroblasts transfected with rabbit NHE3 were grown in supplemented Dulbecco's-modified Eagle's medium as described by Levine et al., J. Biol. Chem. 268, 1993, 25527-25535. […] For cells not acid-preloaded, the actual internal pH value was monitored as a function of time following addition of squalamine, with the results depicted in FIG. 1B.
PS120 fibroblasts transfected with rabbit NHE3 were grown and acid preloaded by exposure to 40 mM NH4 Cl as described above in conjunction with FIGS. 1A and 1B. Internal cellular pH changes expressed as the rate of pH recovery as a function of restored extracellular sodium ion concentration following exposure to 10 μg/ml of the compound were assayed with the fluorescent dye BCECF-AM as described above.

[12] = tested on: Human coronary artery smooth muscle cells; experiment: Growth inhibition in vitro, human coronary artery smooth muscle cells; format: cell-based; settings: 10 μg/ml
Description: as §1

[13] = tested on: L1210 lymphoblastic leukemia; experiment: Mouse model of L1210 leukemia; settings: highest dose (10 mg/kg every 3 days i.p.)
Description: C57B mice were inoculated with L1210 lymphoblastic leukemia cells at an inoculum that causes leukemia in 100% of animals.

Murine B16 melanoma = experiment: Growth inhibition in vitro, B16; format: cell-based; settings: 10 μg/ml
Description: as §1

[14] = Effect on arterial resistance and blood pressure; format: in vivo, rat
Method: A 200-g rat was catheterized in the right carotid artery, and the compound was introduced over a ten-second period to a total dosage of 5 mg/kg. Within 30 seconds, the mean arterial pressure had fallen from about 100 mm Hg to about 70 mm Hg, with a marked reduction in pulse pressure from about 40 mm to about 10 mm. […] If cardiac output was basically unaffected, reduction in blood pressure would have resulted principally from a reduction in system resistance.
At that time, 40 μg of noradrenaline was introduced.

[15] = tested on: Human colon carcinoma HT29; experiment: Growth inhibition in vitro, HT29; format: cell-based; settings: 10 μg/ml
Description: as §1

[16] = tested on: Human colon carcinoma SW948; experiment: Growth inhibition in vitro, SW948; format: cell-based; settings: 10 μg/ml
Description: as §1

Chain of rabbit NHE3 (P26432 30-832): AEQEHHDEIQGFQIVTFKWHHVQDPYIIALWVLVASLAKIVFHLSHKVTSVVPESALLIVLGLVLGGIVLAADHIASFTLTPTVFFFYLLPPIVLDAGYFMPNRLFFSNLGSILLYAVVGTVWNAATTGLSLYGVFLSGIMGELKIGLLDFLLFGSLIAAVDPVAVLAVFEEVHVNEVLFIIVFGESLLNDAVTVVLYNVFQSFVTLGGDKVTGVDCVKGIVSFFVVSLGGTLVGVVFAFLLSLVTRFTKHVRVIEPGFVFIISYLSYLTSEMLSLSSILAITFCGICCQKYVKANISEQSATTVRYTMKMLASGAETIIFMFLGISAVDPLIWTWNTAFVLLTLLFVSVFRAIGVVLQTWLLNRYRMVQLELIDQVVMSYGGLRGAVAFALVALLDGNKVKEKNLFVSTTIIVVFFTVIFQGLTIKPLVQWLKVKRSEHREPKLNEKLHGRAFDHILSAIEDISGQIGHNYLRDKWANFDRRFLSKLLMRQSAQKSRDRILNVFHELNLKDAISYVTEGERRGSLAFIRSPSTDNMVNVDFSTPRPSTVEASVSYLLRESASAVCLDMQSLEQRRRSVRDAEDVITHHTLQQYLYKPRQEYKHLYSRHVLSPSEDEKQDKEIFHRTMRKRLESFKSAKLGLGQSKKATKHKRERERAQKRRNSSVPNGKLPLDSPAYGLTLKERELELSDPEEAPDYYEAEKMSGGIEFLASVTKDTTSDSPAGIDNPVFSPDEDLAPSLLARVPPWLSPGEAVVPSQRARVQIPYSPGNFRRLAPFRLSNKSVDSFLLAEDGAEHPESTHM

Compound: CC(C)[C@@H](CC[C@@H](C)[C@H]1CC[C@H]2[C@@H]3[C@H](O)C[C@H]4C[C@@H](NCCCNCCCCNCCCN)CC[C@]4(C)[C@H]3CC[C@]12C)OS(=O)(=O)O [Compound 1436]
- Inhibited in vitro: Human microvascular endothelial cells [1]: INHIBITED
- Concentration maintaining quiescent state without loss of viability [2]: about 11 μg/ml
- Suppression of growth of human coronary artery smooth muscle ([2]; in vitro): suppress in vitro the growth of human coronary artery smooth muscle
- Hyperglycemia ([3]; i.v., 1436 in D5W, 1437 in water): caused hyperglycemia in mice
- Fasting Blood Glucose Mean ± SEM ([3]; total dose 20 mg/kg i.v. (2 × 10 mg/kg), 30 min. after 2d dose): 105 ± 8.0 mg/dL
- Inhibited in vitro: Murine L1210 leukemia (Murine L1210 leukemia): INHIBITED
- minimal effective concentration (ELC): 16.7 µg/mL
- Inhibited in vitro: Human umbilical venous endothelial cells [4]: INHIBITED
- % Viability ([5]; 0.5 μM): 91%
- % Viability ([5]; 10 μM): 95%
- Lymphocyte viability ([5]; 10 μg/ml): 95%
- % Viability ([5]; 20 μM): 90.1%
- Inhibited in vitro: Lewis lung carcinoma (Lewis lung carcinoma): INHIBITED
- Impact on tumor volume (B16 melanoma; compound 1436 10 mg/kg/every 3 days): no significant impact on tumor volume
- Tumor growth effect of single agent compared with combination (B16 melanoma; squalamine 15 mg/kg/day, compound 1436 alone in a tolerable schedule): Neither administration of squalamine at 15 mg/kg/day nor compound 1436 alone in a tolerable schedule could achieve this effect
- Vitelline capillary regression ([6]; 0.001 μg applied): +/-
- Vitelline capillary regression ([6]; 0.01 μg applied): +
- Vitelline capillary regression ([6]; 0.1 μg applied): +
- Vitelline capillary regression ([6]; 1 μg applied): +
- Vitelline capillary regression ([6]; 10 μg applied): +
- Effect on chick embryo vessels ([6]; 3- to 5-day chick embryo): vitelline capillary regression with about the same potency as squalamine
- Inhibited in vitro: Bovine pulmonary endothelial cells [7]: INHIBITED
- Tadpole E (epithelial) [8]: ±
- Tadpole GI (gastrointestinal) [8]: -
- Tadpole M (melanocytes) [8]: +
- Tadpole Mus (muscle) [8]: -
- Tadpole V (vascular) [8]: +
- Growth suppression [9]: growth was almost completely inhibited
- Inhibited in vitro: Human ovarian carcinoma SKOV3 [10]: INHIBITED
- Tadpole assay, observed effects [11]: common vascular occlusive effect; also recorded: Gradual reduction in overall activity; also recorded: Melanocytes over head and tail began to swell, first exhibiting visibly distinct nuclei, followed by rupture into fragments; also recorded: dramatic disruption of melanocytes over its head, trunk, and tail, along with depression of its nervous system; also recorded: No effects are observed on epithelial cell integrity, vascular flow, erythrocyte volume, tissue integrity, muscle fiber striation, or GI tract activity
- Tadpole time to death [11]: about 2 hours
- Inhibited in vitro: Human melanoma WM 1617 (Human melanoma WM 1617): INHIBITED
- Persistence of spontaneous beating (Xenopus laevis heart): up to 24 hours
- Inhibition of rabbit NHE3 (rabbit NHE3): found to inhibit rabbit NHE3; also recorded: inhibitor of NHE3
- Inhibited in vitro: Human coronary artery smooth muscle cells [12]: INHIBITED
- Survival in mice bearing L1210 leukemia [13]: significant prolongation of life
- Inhibited in vitro: Murine B16 melanoma (Murine B16 melanoma): INHIBITED
- Reversibility of blood pressure effect ([14]; 40 μg of noradrenaline at 30 minutes): readily reversible by standard pharmacological practice
- Change of effect over 30 minutes ([14]; 5 mg/kg i.v., followed for 30 minutes): without significant change
- Pulse pressure after dosing ([14]; 5 mg/kg i.v., within 30 seconds, from about 40 mm): about 10 mm
- Mean arterial pressure after dosing ([14]; 5 mg/kg i.v., within 30 seconds, from about 100 mm Hg): about 70 mm Hg
- Inhibited in vitro: Human colon carcinoma HT29 [15]: INHIBITED
- Inhibited in vitro: Human colon carcinoma SW948 [16]: INHIBITED
